Patent US20240228467A1, “INDIRUBIN COMPOUNDS AND METHODS THEREOF” (JAWAHARLAL NEHRU CENTRE FOR ADVANCED SCIENTIFIC RESEARCH, priority 2021, published 2024)

System: HeLa and/or SH-SY5Y cells
Test: Autophagic flux, RFP-EGFP-LC3 assay (fluorescent analysis, FIG. 1)
Format: cell-based
Settings: compared to the growth media control
Description: Autophagic flux refers to a measure of autophagic degradation activity. FIG. 1 depicts the fluorescent analysis of the autophagic flux in the presence of 6-bromoindirubin oxime (6-BIO), 6-MIO, and compounds of Formula I—compounds ‘a’ and ‘m’. FIG. 1 depicts that both autophagosomes and autolysosomes are increased with the compounds of Formula I when compared to the growth media control.
The assays were essentially performed as follows: RFP-EGFP-LC3 assay: sub-confluent HeLa and/or SH-SY5Y cells were seeded into 60 mm cell culture dishes, then transfected with ptf LC3 construct and/or siRNA and allowed to express for 48 h. Cells were trypsinized, seeded again on poly-D-lysine coated cover slips in a 12 or 24 well plates and allowed to attach. After appropriate treatments, the coverslips containing cells were processed for imaging. For immunofluorescent antibody staining, the cover slips were incubated in primary antibody at 4° C. for overnight followed by secondary antibody incubation at room temperature. For imaging the mammalian cells, after appropriate treatments, coverslips containing cells were fixed using 4% paraformaldehyde (PFA; Sigma) and then permeabilized using Triton X-100 (0.2%, HiMedia). Coverslips were mounted on slide using antifade, Vectashield mounting medium (Vector Laboratories). Images were acquired using DeltaVision Elite widefieldmicroscope (API, GE) with following filters: FITC (490/20 and 529/38), TRITC (542/27 and 594/45) and Cy5 (632/22 and 676/34). Acquired images were processed using DV softWoRX software. In this standard assay, the autophagosomes would appear as yellow whereas autolysosomes would be red as EGFP gets quenched at lysosomal acidic pH6.

Row | SMILES | autolysosomes | autophagosomes
1 | O=C1Nc2cc(Br)ccc2/C1=C1/Nc2ccccc2/C1=N\O.[Li] [a, (2Z,3E)-6′-bromo-3-(hydroxyimino)-[2,3′-biindolinylidene]-2′-one lithium salt] | increased | increased
2 | O=C1Nc2cc(Br)ccc2/C1=C1/Nc2ccccc2/C1=N\OCCO [m, (2Z,3E)-6′-bromo 3-((2-hydroxyethoxy)imino)-[2,3′-biindolinylidene]-2′-one] | increased | increased
